PubChem BioAssay AID248 (DTP/NCI, 2004)
“And” between values parts separate entries of the source, which are not always exact repeats. Equal entries are not always repeated. Toxic doses and inconclusive results are not listed. No stated cut-off is given here; in the data, active means T/C of 150% or more; inactive means T/C below 125%.

System: L1210 leukemia ip in BDF1 mice, survival T/C
Assay: NCI In Vivo Anticancer Drug Screen. Data for tumor model L1210 Leukemia (intraperitoneal) in B6D2F1 (BDF1) mice
Settings: endpoint: mean survival time, higher = longer survival
Outline: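 Read-out is survival time, reported as the treated-group measurement over the vehicle-control measurement.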

[1] = dose: 100.0 mg/kg/injection, schedule: Q01DX009 (ip), vehicle: Klucel (hydroxypropylcellulose) (HPC)
[2] = dose: 200.0 mg/kg/injection, schedule: Q01DX009 (ip), vehicle: Klucel (hydroxypropylcellulose) (HPC)
[3] = dose: 100.0 mg/kg/injection, schedule: Q04DX003 (ip), vehicle: Klucel (hydroxypropylcellulose) (HPC)
[4] = dose: 200.0 mg/kg/injection, schedule: Q04DX003 (ip), vehicle: Klucel (hydroxypropylcellulose) (HPC)
[5] = dose: 400.0 mg/kg/injection, schedule: Q01DX009 (ip), vehicle: Klucel (hydroxypropylcellulose) (HPC)
[6] = dose: 400.0 mg/kg/injection, schedule: Q04DX003 (ip), vehicle: Klucel (hydroxypropylcellulose) (HPC)

Measured: T/C

C=CCc1ccc(OC(=O)Nc2cccc3ccccc23)c(OC)c1
inactive: dose: 100.0 mg/kg/injection, schedule: Q04DX002 (ip), vehicle: Klucel (hydroxypropylcellulose) (HPC) 96 % of control | dose: 200.0 mg/kg/injection, schedule: Q04DX002 (ip), vehicle: Klucel (hydroxypropylcellulose) (HPC) 124 % of control | dose: 400.0 mg/kg/injection, schedule: Q04DX002 (ip), vehicle: Klucel (hydroxypropylcellulose) (HPC) 93 % of control

c1ccc(COc2ccnc(SCc3ccccc3)n2)cc1
inactive: dose: 100.0 mg/kg/injection, schedule: Q01DX001 (ip), vehicle: Klucel (hydroxypropylcellulose) (HPC) 90 % of control | [1] 95 % of control | dose: 200.0 mg/kg/injection, schedule: Q01DX001 (ip), vehicle: Klucel (hydroxypropylcellulose) (HPC) 95 % of control | [2] 93 % of control | dose: 400.0 mg/kg/injection, schedule: Q01DX001 (ip), vehicle: Klucel (hydroxypropylcellulose) (HPC) 100 % of control

COc1ccccc1NC(=O)c1ccc(Cl)cc1
inactive: [1] 91 % of control | [3] 105 % of control | [2] 98 % of control | [4] 108 % of control | [5] 102 % of control | [6] 97 % of control

O=c1[nH]cc(C(F)(F)F)c(=O)[nH]1
inactive: dose: 4.0 mg/kg/injection, schedule: Q01DX Z (oral), vehicle: methylcellulose (MC) 106 % of control | dose: 8.0 mg/kg/injection, schedule: Q01DX Z (oral), vehicle: methylcellulose (MC) 102 % of control | dose: 12.0 mg/kg/injection, schedule: Q01DX Z (oral), vehicle: methylcellulose (MC) 103 % of control and 91 % of control | dose: 16.0 mg/kg/injection, schedule: Q01DX Z (oral), vehicle: methylcellulose (MC) 90 % of control | dose: 50.0 mg/kg/injection, schedule: Q01DX Z (ip), vehicle: saline 103 % of control | dose: 100.0 mg/kg/injection, schedule: Q01DX Z (ip), vehicle: saline 107 % of control | dose: 200.0 mg/kg/injection, schedule: Q01DX Z (ip), vehicle: saline 116 % of control and 123 % of control | dose: 300.0 mg/kg/injection, schedule: Q01DX Z (ip), vehicle: saline 124 % of control | dose: 400.0 mg/kg/injection, schedule: Q01DX Z (ip), vehicle: saline 98 % of control | dose: 500.0 mg/kg/injection, schedule: Q01DX Z (ip), vehicle: saline 117 % of control | dose: 500.0 mg/kg/injection, schedule: Q01DX Z (oral), vehicle: methylcellulose (MC) 111 % of control | dose: 1000.0 mg/kg/injection, schedule: Q01DX Z (oral), vehicle: methylcellulose (MC) 93 % of control | dose: 1500.0 mg/kg/injection, schedule: Q01DX Z (oral), vehicle: methylcellulose (MC) 94 % of control | dose: 2000.0 mg/kg/injection, schedule: Q01DX Z (oral), vehicle: methylcellulose (MC) 88 % of control

COc1cc([N+](=O)[O-])ccc1NC(=O)Oc1ccc(F)cc1Cl
inactive: [1] 94 % of control | [2] 88 % of control

O=C(OC1CCCCCCC1)C(F)(F)F
inactive: [1] 98 % of control | [3] 104 % of control | [2] 101 % of control | [4] 105 % of control | [5] 92 % of control | [6] 105 % of control

CN1CCC=C(C(=O)N(c2ccccc2)c2ccccc2)C1
inactive: dose: 50.0 mg/kg/injection, schedule: Q01DX009 (ip), vehicle: saline 106 % of control | dose: 100.0 mg/kg/injection, schedule: Q01DX009 (ip), vehicle: saline 101 % of control | dose: 100.0 mg/kg/injection, schedule: Q04DX003 (ip), vehicle: saline 93 % of control | dose: 200.0 mg/kg/injection, schedule: Q01DX009 (ip), vehicle: saline 97 % of control | dose: 200.0 mg/kg/injection, schedule: Q04DX003 (ip), vehicle: saline 98 % of control

CCOC(OCC)c1ccccc1
inactive: dose: 50.0 mg/kg/injection, schedule: Q01DX001 (ip), vehicle: saline 113 % of control | dose: 100.0 mg/kg/injection, schedule: Q01DX001 (ip), vehicle: saline 115 % of control | dose: 200.0 mg/kg/injection, schedule: Q01DX001 (ip), vehicle: saline 109 % of control | dose: 400.0 mg/kg/injection, schedule: Q01DX001 (ip), vehicle: saline 113 % of control
